# Reference: US8728977B2, “Herbicidal combinations comprising tefuryltrione for use in rice crops” (Bayer Cropscience AG, priority 2009, dated 2014)
# Read-outs that look alike come from different tables or passages of the source.
# Test system: LEFCH (Leptochloa chinensis)
# Experiment: Post-emergence action against LEFCH (greenhouse pot test, visual evaluation)
# Assay type: in vivo
# Conditions: for pest or weed control at 50 g/ha: read-out: Action against LEFCH
# Experimental: The herbicidal activity of the active substances or active substance mixtures was evaluated visually from the treated variants in comparison with untreated control variants. In this connection, damage to and development of all plant parts above ground was included. The evaluation was carried out according to a percentage scale (100% action=all plants dead; 50% action=50% of the plants and green plant parts dead; 0% action=no recognizable action=as untreated control plot).
# Seeds or root pieces of mono- and dicotyledonous weeds are placed in sandy clay soil in pots, covered with earth and secured in a greenhouse under good growing conditions (temperature, air humidity, water supply). Approximately three weeks after sowing, the test plants are treated with the compositions according to the invention. The compositions according to the invention formulated as wettable powders or as emulsion concentrates are sprayed, in spray application, on to the green plant parts in different dosages with a water application rate of 600 to 800 I/ha (corrected). Immediately up to a few days after application, the test receptacles accumulate water over the ground surface by up to 30 mm. With the water application (submerged application), on the other hand, the ground in the closed test receptacle is already covered with the paddy water up to 30 mm at the time of the application. The formulated active substances are here added directly to the paddy water. After an exposure time of the test plants in the greenhouse of an additional 3 to 4 weeks under optimum growing conditions, the effect of the preparations is evaluated visually in comparison with untreated controls. […] In this connection, actions of the combinations according to the invention which exceed the formal sum of the actions of the herbicides when applied individually are frequently observed. The values observed for the tests show, with suitable low dosages, an action of the combinations which lies above the expected values according to Colby.
# If the observed activity values already exceed the formal sum of the values for the tests with individual applications, then they likewise exceed the expected value according to Colby, which is calculated according to the following formula and is likewise regarded as an indication of synergy (cf. S. R. Colby in Weeds, 15 (1967), pp. 20 to 22):
# [formula] In this connection: • A, B=action of the component A or B in percent at a dosage of a or b grams ai/ha. • E=expected value in % at a dosage of a+b grams ai/ha.
# The abbreviation LEFCH is the harmful plant Leptochloa chinensis.
# [1] = dosage 12.5 g/ha, single herbicide
# [2] = dosage 50 g/ha, single herbicide
# [3] = dosage 75 g/ha, single herbicide
# [4] = dosage 2.5 g/ha, single herbicide
# [5] = Dinebra chinensis, dosage 50 g/ha, single herbicide
compound,measurement,setting,value
"Cc1nn(C)c(O)c1C(=O)c1ccc(C(F)(F)F)cc1S(C)(=O)=O [Compound B14, pyrasulfotole]",Action against LEFCH,[1],30%
"Cn1nc(C(F)(F)F)c(CS(=O)(=O)C2=NOC(C)(C)C2)c1OC(F)F [Compound B17, pyroxasulfone]",pest or weed control at 7.5 g/ha,"Dinebra chinensis, dosage 7.5 g/ha, single herbicide",15%
"COCc1cccc(C(O)c2nc(OC)cc(OC)n2)c1NS(=O)(=O)C(F)F (stereo not shown) [Compound B15, pyrimisulfan]",Action against LEFCH,[2],20%
"C#CCN(C)c1c(C#N)cnn1-c1nn2c(c1Cl)CCCC2 [Compound B13, pyraclonil]",Action against LEFCH,[3],30%
"Cc1ccc2c(c1)[C@H](Nc1nc(N)nc(C(C)F)n1)[C@@H](C)C2 (stereo partly shown) [Compound B5, indaziflam]",Action against LEFCH,[4],25%
"COc1cc(OC)nc(NC(=O)NS(=O)(=O)Nc2ccccc2C(=O)N(C)C)n1 [Compound B9, orthosulfamuron]",Action against LEFCH,"dosage 30 g/ha, single herbicide",40%
"COC(=O)c1nc(-c2ccc(Cl)c(OC)c2F)cc(N)c1Cl [Compound B22, methyl 4-amino-3-chloro-6-(4-chloro-2-fluoro-3-methoxyphenyl)pyridine-2-carboxylate]",pest or weed control at 50 g/ha,Dinebra chinensis,10%
"COc1cc(OC)nc(NC(=O)NS(=O)(=O)Nc2ccccc2C(=O)C2CC2)n1 [Compound B4, cyclosulfamuron]",pest or weed control at 50 g/ha,[5],20%
"CCc1cc(C)cc(CC)c1-c1c(OC(=O)C(C)(C)C)n2n(c1=O)CCOCC2 [Compound B11, pinoxaden]",pest or weed control at 10 g/ha,"Dinebra chinensis, dosage 10 g/ha, single herbicide",15%
"Nc1cc(Cl)nc(C(=O)O)c1Cl [Compound B2, aminopyralid]",Action against LEFCH,"dosage 7.5 g/ha, single herbicide",30%
"CC(C)N(C)S(=O)(=O)NC(=O)c1cc(-n2c(=O)cc(C(F)(F)F)n(C)c2=O)c(F)cc1Cl [Compound B19, saflufenacil]",pest or weed control at 3 g/ha,"Dinebra chinensis, dosage 3 g/ha, single herbicide",8%
"COc1cc(OC)n2nc(NS(=O)(=O)c3c(C(F)(F)F)ccnc3OC)nc2n1 [Compound B18, pyroxsulam]",Action against LEFCH,"dosage 15 g/ha, single herbicide",20%
CS(=O)(=O)c1ccc(C(=O)C2C(=O)CCCC2=O)c(Cl)c1COCC1CCCO1 (stereo not shown) [tefuryltrione],Action against LEFCH,[2],20%
"CC(C)N(C(=O)n1cnn(-c2ccc(Cl)cc2Cl)c1=O)c1ccc(F)cc1F [Compound B7, ipfencarbazone]",Action against LEFCH,[2],25%
"COCCOCc1nc(C(F)(F)F)ccc1C(=O)C1C(=O)C2CCC(C2)C1=O (stereo not shown) [Compound B23, 3-({2-[(2-methoxyethoxy)methyl]-6-(trifluoromethyl)pyridin-3-yl}-carbonyl)bicyclo[3.2.1]octane-2,4-dione]",pest or weed control at 12.5 g/ha,"Dinebra chinensis, dosage 12.5 g/ha, single herbicide",25%
"COc1cc(OC)nc(NC(=O)NS(=O)(=O)c2c(C3=NOCC(C)O3)c(Cl)nn2C)n1 (stereo not shown) [Compound B20, 3-chloro-N-[(4,6-dimethoxypyrimidin-2-yl)carbamoyl]-1-methyl-4-(5-methyl-5,6-dihydro-1,4,2-dioxazin-3-yl)-1H-pyrazole-5-sulfonamide]",pest or weed control at 50 g/ha,[5],15%
"COc1cnc(OC)n2nc(NS(=O)(=O)c3c(OCC(F)F)cccc3C(F)(F)F)nc12 [Compound B10, penoxsulam]",pest or weed control at 15 g/ha,"Dinebra chinensis, dosage 15 g/ha, single herbicide",20%
"CCCc1ccc2nc(Cl)c(S(=O)(=O)NC(=O)Nc3nc(OC)cc(OC)n3)n2n1 [Compound B12, propyrisulfuron]",Action against LEFCH,[2],30%
"COCC(=O)OC(c1ncccc1S(=O)(=O)NC(=O)Nc1nc(OC)cc(OC)n1)C(C)F (stereo not shown) [Compound B6, flucetosulfuron]",Action against LEFCH,[4],20%
"CC(C)c1nn(C(=O)NC(C)(C)C)c(=O)n1N [Compound B1, amicarbazone]",Action against LEFCH,[1],10%
"COC(=O)c1nc(C2CC2)nc(N)c1Cl [Compound B3, aminocyclopyrachlor-methyl]",Action against LEFCH,[2],10%
"C[C@@H](Oc1ccc(Oc2nc3ccc(Cl)cc3o2)cc1)C(=O)N(C)c1ccccc1F [Compound B8, metamifop]",Action against LEFCH,[3],15%
